Measurements taken from PMC8022858, “Discovery of bone morphogenetic protein 7-derived peptide sequences that attenuate the human osteoarthritic chondrocyte phenotype” (Molecular Therapy. Methods & Clinical Development, 2021).

Test system: primary human OA articular chondrocytes (OA-HACs)
Assay: BMP7 peptide library screening, quantitative real-time PCR of OA chondrocyte phenotype genes
Type: cell-based
Settings: for expression of SOX9, COL2A1, and NKX3-2 mRNA / expression of RUNX2, COL10A1, ALPL, MMP13, ADAMTS5, COX-2, and IL6 mRNA: 24 h, 1, 10, 100 or 1,000 nM peptide, normalized to 28S rRNA; for expression of SOX9, COL2A1, and NKX3-2 mRNA: relative to control (Figure 2A); for expression of RUNX2, COL10A1, ALPL, MMP13, ADAMTS5, COX-2, and IL6 mRNA: relative to control (Figures 2B, 2C); for concentration range of bioactivity / COL10A1 mRNA expression: 24 h; for concentration range of bioactivity: concentration series 1-1,000 nM; for COL10A1 mRNA expression: pool of 18 OA-HACs, 100 nM peptide, versus control (Figure 1B)
Description: To investigate whether BMP7 harbors potential peptide sequences that improve the OA chondrocyte phenotype, a peptide library was designed from the mature 139 amino acid-long human BMP7 sequence (Table S2). The peptide library was designed as 20-mer peptides with 2 amino acid intervals (18 amino acid overlap) between individual peptides and with all cysteine residues substituted by serine residues to avoid uncontrolled oxidation of cysteine groups. This yielded 61 individual peptides covering the complete mature human BMP7 sequence (Figure 1A). The peptide library was screened using a pool of primary human OA articular chondrocytes (OA-HACs) from 18 individual donors. Prior to pooling, individual OA-HAC isolates were tested for their responsiveness to BMP7 (Figure S1). The screening was conducted by exposing the OA-HAC pool for 24 h to a concentration series (1, 10, 100, or 1,000 nM) of each peptide from the library. […] This is defined as reduced expression of collagen type X alpha 1 chain (COL10A1), alkaline phosphatase (ALPL), Runt-related transcription factor 2 (RUNX2), ADAMTS5, MMP13, prostaglandin-endoperoxide synthase 2 or cyclooxygenase-2 (COX-2), and interleukin 6 (IL6) and increased expression of SRY-box transcription factor 9 (SOX9), COL2A1, and NKX3-2. […] Representative peptides inducing the above gene expression characteristics in OA-HACs were selected from both regions for further investigation. These were peptide p[63−82] and p[113−132] from the library, covering amino acids 63−82 and 113−132 of the mature BMP7 amino acid sequence. The complete quantitative real-time PCR data for peptides p[63−82] and p[113−132] […] For the two candidate peptides, we validated data using an independent cohort of three OA-HACs exposed to 100 nM of p[63−82] or p[113−132] or a combination of both peptides. […] Taken together, two regions in BMP7 were identified delivering peptide sequences that are able to improve the OA chondrocyte phenotype.
Figure 1 BMP7 peptide library screening on primary human OA articular chondrocytes (OA-HACs) (A) Schematic representation of the design of the human BMP7 peptide library. (B) COL10A1 mRNA expression in samples from the library screening on a pool of 18 OA-HACs individually exposed for 24 h to the peptides (100 nM) in the library. Data are shown as compared to the control condition (white bar) and full-length BMP7 (1 nM; gray bar). The two blue bars represent candidate peptides p[63−82] and p[113−132]. […] Error bars represent mean ± SEM, and statistical significance for peptide condition or BMP7 versus control condition as determined by unpaired two-tailed Student’s t test is represented as ∗p < 0.05, ∗∗p < 0.01, and ∗∗∗p < 0.001; NS, not significant.
Figure 2 Bioactivity of BMP7-derived peptides p[63−82] and p[113−132] on OA-HACs Complete peptide library screening quantitative real-time PCR dataset for peptides p[63−82] and p[113−132] is presented. (A) SOX9, COL2A1, and NKX3-2 mRNA expression in the 18 OA-HAC pool exposed to 1,000, 100, 10, or 1 nM of peptide p[63−82] and p[113−132] is shown and presented relative to control (black bars) and alongside full-length BMP7 (white bars). (B) Similar to (A) but for chondrocyte hypertrophy-associated genes RUNX2, COL10A1, and ALPL. (C) Similar to (A) but for cartilage extracellular matrix remodeling-associated genes MMP13 and ADAMTS5 and inflammation-related genes COX-2 and IL-6. (D) Glycosaminoglycan (GAG) content (normalized to total protein content) on an independent cohort of three individual OA-HAC donors treated with 100 nM peptides p[63−82] and p[113−132] for 24 h. (E) Alkaline phosphatase (ALP) activity (normalized to total protein content) in similar samples from (D). (F) Prostaglandin E2 (PGE2) levels in culture supernatant in similar samples from (D). […]

Row | Substance | expression of SOX9, COL2A1, and NKX3-2 mRNA (pool of 18 OA-HAC donors) | expression of RUNX2, COL10A1, ALPL, MMP13, ADAMTS5, COX-2, and IL6 mRNA (pool of 18 OA-HAC donors) | concentration range of bioactivity (pool of 18 OA-HAC donors) | COL10A1 mRNA expression | chondrocyte COX-2, IL-6, and PGE2 levels (full-length BMP7 1 nM, OA-HACs) | sequence specificity: expression of COL2A1, RUNX2, COL10A1, and COX-2 (pool of 18 OA-HAC donors, scrambled peptides 100 nM, 24 h (Figure 2G))
1 | H-AAYYSEGESAFPLNSYMNAT-OH [p[63−82]] | induced | inhibited | low nanomolar range | significantly downregulated |  | 
2 | H-SVLYFDDSSNVILKKYRNMV-OH [p[113−132]] | induced | inhibited | low nanomolar range | significantly downregulated |  | 
3 | BMP7: full-length recombinant bone morphogenetic protein 7 (R&D Systems), used at 1 nM |  |  |  |  | attenuation | 
4 | H-SEASPAMYYLNATANFYESG-OH [scrambled p[63−82], scrambled version of peptide p[63−82], reference compound] |  |  |  |  |  | neither one of them was able to recapitulate the bioactivity
